Reference: US10583119B2, “Compounds, compositions and methods for making the same” (Signum Biosciences, Inc., priority 2008, dated 2020)

Each compound was assayed against T1, protein phosphatase 2A specific methyltransferase (MTase) (Homo sapiens, UniProt Q9UIC8) (assay: PP2A methylation in 96-well plate format (methyltransferase activity)). Details: purified PP2A, MTase and [3H]-SAM; read-out: MT (IC50).
T1 construct: His; made in house
T1 sequence (Q9UIC8 whole entry): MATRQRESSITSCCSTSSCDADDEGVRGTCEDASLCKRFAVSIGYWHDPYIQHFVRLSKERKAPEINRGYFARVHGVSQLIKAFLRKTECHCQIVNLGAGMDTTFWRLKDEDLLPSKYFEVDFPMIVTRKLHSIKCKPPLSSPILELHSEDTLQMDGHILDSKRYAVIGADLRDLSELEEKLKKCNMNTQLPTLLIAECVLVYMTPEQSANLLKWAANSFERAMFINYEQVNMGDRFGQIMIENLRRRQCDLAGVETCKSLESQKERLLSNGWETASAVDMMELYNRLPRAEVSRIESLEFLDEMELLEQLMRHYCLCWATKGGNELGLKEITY
Format: biochemical
Experimental: Purified PP2A, MTase and [^3H]-SAM, were incubated in reaction buffer at 37° C. At the end of the reaction, mixture was added onto the membranes of 96-well filter plate (Multiscreen™, Millipore). The membranes were then pre-wetted with 70% ethanol (50 μL/well) and then subsequently washed with water (2×200 μL/well). The reaction in each well was terminated and the proteins (5 μL-20 μL) were precipitated by adding 25% ice-cold TCA. The plate was kept on ice for 30 minutes to ensure completion of protein precipitation. Excess of the free SAM was then removed by washing with 5% cold TCA ([…]) and 70% cold ethanol (2×100 μL/well). Membranes were air-dried, radioactivity in each well was counted by TopCount^NXT scintillation counter (Packard) with 25 μL/well of Microsinct™ 20 (PerkinElmer).
`CCCCCCCCCCCCCCCCCCNC(=O)NC(Cc1c[nH]c2ccc(O)cc12)C(=O)O` (stereo not drawn) [Compound I-79, 3-(5-hydroxy-1H-indol-3-yl)-2-(3-octadecylureido)propanoic acid] gave an IC50 of less than 10 µM.
`CCCCCCCCCCCCCCCCCCNC(=O)Cc1c[nH]c2ccc(O)cc12` [Compound I-39, 2-(5-hydroxy-1H-indol-3-yl)-N-octadecylacetamide] was tested, and the IC50 was 10 to 100 µM.
With `CCCCCCCCCCCCCCCCCC(=O)NCCc1c[nH]c2ccccc12` [Compound I-65, N-(2-(1H-indol-3-yl)ethyl)stearamide] the IC50 was less than 10 µM.
`CCCCCCCCCCCCCCCCCCNC(=O)NCCc1c[nH]c2ccc(O)cc12` [Compound I-31, 1-[2-(5-hydroxy-1H-indol-3-yl)ethyl]-3-octadecylurea] gave an IC50 of 10 to 100 µM.
Compound `CCCCCCCCCCCCCCCCCC(=O)NCCc1c[nH]c2ccc(O)cc12` [Compound I-66, N-(2-(5-hydroxy-1H-indol-3-yl)ethyl)stearamide] has an IC50 of less than 10 µM.
`CCCCCCCCCCCCCCCCCCCC(=O)N(C)CCc1c[nH]c2ccccc12` [Compound I-38, N-[2-(1H-indol-3-yl)ethyl]-N-methylicosanamide] was tested, and the IC50 was greater than 100 µM.
Compound `CCCCCCCCCCCCCCCCNC(=O)NC(Cc1c[nH]c2ccc(O)cc12)C(=O)O` (stereo not drawn) [Compound I-78, 2-(3-hexadecylureido)-3-(5-hydroxy-1H-indol-3-yl)propanoic acid] has an IC50 of less than 10 µM.
For `CCCCCCCCCCCCCCCCCCCC(=O)NCCc1c[nH]c2ccc(F)cc12` [Compound I-35, N-[2-(5-fluoro-1H-indol-3-yl)ethyl]icosanamide], the IC50 was less than 10 µM.

These compounds were tested against T2, protein phosphatase specific protein methylesterase (MEase) (Homo sapiens, UniProt Q9Y570) (assay: PP2A demethylation with [3H]-SAM and purified proteins (methylesterase activity)). Details: not given.
T2 construct: made in house
T2 sequence (Q9Y570 1-386): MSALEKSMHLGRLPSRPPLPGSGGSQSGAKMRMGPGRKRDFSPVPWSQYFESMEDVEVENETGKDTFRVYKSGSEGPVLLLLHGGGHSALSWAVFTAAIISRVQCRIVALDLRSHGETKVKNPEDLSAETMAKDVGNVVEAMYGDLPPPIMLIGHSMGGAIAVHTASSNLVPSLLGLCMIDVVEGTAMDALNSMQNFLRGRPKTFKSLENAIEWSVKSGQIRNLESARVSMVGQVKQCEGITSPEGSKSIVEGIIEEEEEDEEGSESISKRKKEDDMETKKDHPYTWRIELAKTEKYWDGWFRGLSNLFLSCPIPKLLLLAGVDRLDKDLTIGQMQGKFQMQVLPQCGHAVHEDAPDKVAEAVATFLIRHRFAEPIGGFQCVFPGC
Format: biochemical
Experimental: PP2A (methylated and unmethylated) were eluted with 1.6 mL of Buffer A containing 350 mM NaCl. Fractions (0.2 mL each) were collected and the radioactivity in each fraction was measured using the scintillation counter (LS 6000SE, Beckman). Fractions with highest radioactivity were containing purified methylated PP2A were pooled with a total volume of 0.6 mL-0.8 mL. Purified methylated PP2A (50 nM-100 nM) was incubated with MEase (5 nM-20 nM) in 20 μl-50 μl reaction at room temperature for 30 minutes. The reaction was terminated by adding TCA (2 μl-6 μl) to a final concentration of 10%. Released [^3H]-methanol in supernatants was counted with scintillation counter (LS 6000SE, Beckman).
In the case of `CCCCCCCCCCCCCCCCCCCC(=O)N(C)CCc1c[nH]c2ccccc12` [Compound I-38, N-[2-(1H-indol-3-yl)ethyl]-N-methylicosanamide], the IC50 is reported as greater than 100 µM.

Same assay, conditions: purified methylated PP2A and MEase; read-out: ME (IC50)
`CCCCCCCCCCCCCCCCCCNC(=O)NC(Cc1c[nH]c2ccc(O)cc12)C(=O)O` (stereo not drawn) [Compound I-79, 3-(5-hydroxy-1H-indol-3-yl)-2-(3-octadecylureido)propanoic acid] showed an IC50 of 10 to 100 µM.
`CCCCCCCCCCCCCCCCCCC(=O)NCCc1c[nH]c2ccc(O)cc12` [Compound I-67, N-(2-(5-hydroxy-1H-indol-3-yl)ethyl)nonadecanamide] gave an IC50 greater than 100 µM.
For `CCCCCCCCCCCCCCCCCCNC(=O)Cc1c[nH]c2ccc(O)cc12` [Compound I-39, 2-(5-hydroxy-1H-indol-3-yl)-N-octadecylacetamide], the IC50 was less than 10 µM.
`CCCCCCCCCCCCCCCCCC(=O)NCCc1c[nH]c2ccccc12` [Compound I-65, N-(2-(1H-indol-3-yl)ethyl)stearamide] showed an IC50 of less than 10 µM.
`CCCCCCCCCCCCCCCCCCNC(=O)NCCc1c[nH]c2ccc(O)cc12` [Compound I-31, 1-[2-(5-hydroxy-1H-indol-3-yl)ethyl]-3-octadecylurea] showed an IC50 of less than 10 µM.
Compound `CCCCCCCCCCCCCCCCCC(=O)NCCc1c[nH]c2ccc(O)cc12` [Compound I-66, N-(2-(5-hydroxy-1H-indol-3-yl)ethyl)stearamide] has an IC50 of less than 10 µM.
For `CCCCCCCCCCCCCCCCNC(=O)NC(Cc1c[nH]c2ccc(O)cc12)C(=O)O` (stereo not drawn) [Compound I-78, 2-(3-hexadecylureido)-3-(5-hydroxy-1H-indol-3-yl)propanoic acid], the IC50 was less than 10 µM.
For `CCCCCCCCCCCCCCCCCCCC(=O)NCCc1c[nH]c2ccc(F)cc12` [Compound I-35, N-[2-(5-fluoro-1H-indol-3-yl)ethyl]icosanamide], the IC50 was less than 10 µM.

These compounds were tested against T3, PP2A (Homo sapiens, UniProt P67775) (assay: Phosphatase activity of PP2A using pNPP as substrate). Details: un-methylated PP2A, non-protein substrate pNPP, absence of ME and MT.
T3 construct: made in house
T3 sequence (P67775 whole entry): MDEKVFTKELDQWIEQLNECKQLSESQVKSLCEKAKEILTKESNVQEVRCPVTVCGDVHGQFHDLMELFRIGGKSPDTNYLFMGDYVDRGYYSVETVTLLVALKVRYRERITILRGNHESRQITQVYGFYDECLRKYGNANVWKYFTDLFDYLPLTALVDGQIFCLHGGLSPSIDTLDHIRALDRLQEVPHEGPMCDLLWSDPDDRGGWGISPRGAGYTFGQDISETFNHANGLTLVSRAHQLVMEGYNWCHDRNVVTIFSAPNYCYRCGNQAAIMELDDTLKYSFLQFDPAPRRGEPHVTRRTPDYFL
T3 sequence (P30153 whole entry partner): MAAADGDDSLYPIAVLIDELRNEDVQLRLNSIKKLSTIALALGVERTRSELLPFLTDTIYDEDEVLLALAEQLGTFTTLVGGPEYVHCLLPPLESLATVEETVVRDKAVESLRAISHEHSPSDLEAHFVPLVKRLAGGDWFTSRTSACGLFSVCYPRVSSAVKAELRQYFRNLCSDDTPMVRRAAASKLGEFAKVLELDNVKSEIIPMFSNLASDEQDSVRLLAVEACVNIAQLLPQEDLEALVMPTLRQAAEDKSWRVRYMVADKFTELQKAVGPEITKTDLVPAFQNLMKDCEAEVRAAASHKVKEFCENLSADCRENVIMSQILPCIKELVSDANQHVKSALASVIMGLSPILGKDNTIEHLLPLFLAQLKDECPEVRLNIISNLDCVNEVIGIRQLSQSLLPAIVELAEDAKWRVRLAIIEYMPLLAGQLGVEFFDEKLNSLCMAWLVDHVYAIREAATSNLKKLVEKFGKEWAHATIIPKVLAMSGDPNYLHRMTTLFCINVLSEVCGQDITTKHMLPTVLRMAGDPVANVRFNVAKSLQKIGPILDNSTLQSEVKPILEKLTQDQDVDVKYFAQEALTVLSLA
Format: biochemical
Experimental: PP2A (10-200 nM) and pNPP (5-10 mM, Sigma) were mixed into 96-well plate (Fisher Scientific Inc.) in 50 μL of the buffer required. Reactions were performed at room temperature, and fully stopped by adding equal volume of 0.1 M EDTA. Production of p-nitrophenol […] was quantified by absorbance of reaction mixtures at 405 nm using the VMax® microplate reader (Molecular Devices).
With `CCCCCCCCCCCCCCCCCCNC(=O)NC(Cc1c[nH]c2ccc(O)cc12)C(=O)O` (stereo not drawn) [Compound I-79, 3-(5-hydroxy-1H-indol-3-yl)-2-(3-octadecylureido)propanoic acid] the IC50 was greater than 100 µM.
For `CCCCCCCCCCCCCCCCCCC(=O)NCCc1c[nH]c2ccc(O)cc12` [Compound I-67, N-(2-(5-hydroxy-1H-indol-3-yl)ethyl)nonadecanamide], the IC50 was 10 to 100 µM.
For `CCCCCCCCCCCCCCCCCCNC(=O)Cc1c[nH]c2ccc(O)cc12` [Compound I-39, 2-(5-hydroxy-1H-indol-3-yl)-N-octadecylacetamide], the IC50 was 10 to 100 µM.
For `CCCCCCCCCCCCCCCCCC(=O)NCCc1c[nH]c2ccccc12` [Compound I-65, N-(2-(1H-indol-3-yl)ethyl)stearamide], the IC50 was greater than 100 µM.
For `CCCCCCCCCCCCCCCCCCNC(=O)NCCc1c[nH]c2ccc(O)cc12` [Compound I-31, 1-[2-(5-hydroxy-1H-indol-3-yl)ethyl]-3-octadecylurea], the IC50 was 10 to 100 µM.
In the case of `CCCCCCCCCCCCCCCCCC(=O)NCCc1c[nH]c2ccc(O)cc12` [Compound I-66, N-(2-(5-hydroxy-1H-indol-3-yl)ethyl)stearamide], the IC50 is reported as 10 to 100 µM.
In the case of `CCCCCCCCCCCCCCCCCCCC(=O)N(C)CCc1c[nH]c2ccccc12` [Compound I-38, N-[2-(1H-indol-3-yl)ethyl]-N-methylicosanamide], the IC50 is reported as greater than 100 µM.
`CCCCCCCCCCCCCCCCNC(=O)NC(Cc1c[nH]c2ccc(O)cc12)C(=O)O` (stereo not drawn) [Compound I-78, 2-(3-hexadecylureido)-3-(5-hydroxy-1H-indol-3-yl)propanoic acid] was tested, and the IC50 was greater than 100 µM.
`CCCCCCCCCCCCCCCCCCCC(=O)NCCc1c[nH]c2ccc(F)cc12` [Compound I-35, N-[2-(5-fluoro-1H-indol-3-yl)ethyl]icosanamide] gave an IC50 of 10 to 100 µM.

These compounds were tested on MPTP Mouse Model of Parkinson's Disease (assay: MPTP-induced neurotoxicity in MPTP mouse model of Parkinson's disease (striatal tyrosine hydroxylase ELISA)). Details: mice on control diets, relative to saline-injected mice.
Format: in vivo, C57BL/6J mice
Excerpt: MPTP (1-methyl-4-phenyl-1,2,3,6-tetrahydropyridine) is routinely used as a chemical agent that induces Parkinson's disease-like neurodegeneration in cellular and animal models. Both Parkinson's Disease and MPTP-induced neurotoxicity are associated with a number of different biomarkers including reduction of tyrosine hydroxylase levels and activity. Tyrosine hydroxylase is a key enzyme in the dopamine biosynthesis pathway as it is involved in the conversion of tyrosine to […]. Tyrosine hydroxylase activity is regulated by its phosphorylation status and PP2A is known to be involved in this regulation.
C57BL/6J mice, aged 2-3 months were fed ad libitum, either standard rodent chow (Control), or rodent chow formulated with 0.1 g Compound I-63, or 0.001 g Compound I-63 per 100 g chow (0.1% and 0.001% Compound I-63, respectively); water was changed weekly. Mice were housed at 23° C., on a 12 hour light and dark cycle, with 6 mice per cage. After 2 weeks, 8-12 mice each from the Control, 0.1% Compound 1-63 and 0.001% Compound I-63 groups were injected with either saline, or 10 mg/kg MPTP i.e., four times, every 2 hours, on the same day. Mice were then maintained on their respective feeds for another week, at which point they were sacrificed by cervical dislocation and brains dissected for biochemical analyses.
Striatal tyrosine hydroxylase (TH) content was measured by ELISA as follows. Ninety-six well microliter plates (Thermo Labsystems) were incubated overnight at 4° C. with monoclonal anti-TH antibody (1:500; Calbiochem) in 8 mM sodium phosphate, 2 mM potassium phosphate, and 0.14 M sodium chloride, pH 7.4 (PBS). Wells were washed four times with PBS and then blocked for 1 hour using 5% (w/v) Carnation (Nestle) nonfat dry milk in PBS. Striatal tissue samples were homogenized by sonication in PBS-0.5% Triton X-100 (PBST) with 0.25% (w/v) SDS. […] The reaction product was measured fluorometrically within the linear range of detection (excitation:emission ratio of 530:580 nm). […] Data were expressed as percent TH levels in MPTP-treated mice relative to saline-injected mice. […]
`CN1CC=C(c2ccccc2)CC1` [MPTP, 1-methyl-4-phenyl-1,2,3,6-tetrahydropyridine, reference compound] was tested, and the “reduction of tyrosine hydroxylase levels” value was 60%.

The compounds below were run against T3, PP2A (assay: Phosphatase activity of PP2A using phosphorylase a as substrate). Details: un-methylated PP2A, protein substrate phosphorylase a, absence of ME and MT.
Format: biochemical
Experimental: After the reaction, proteins were precipitated by 50% (NH4)2SO4 (final concentration) twice, and collected by centrifugation. The pellet was re-dissolved and dialyzed in a buffer containing 50 mM Tris-HCl (pH6.9) and ImM DTT for 2×2 L at 4° C. overnight. Phosphorylase a (phospho-phosphorylase b) crystallized during the dialysis. The dialysate was centrifuged 14,000 r.p.m at 4° C. for 30 minutes, the supernatant was removed and purified ^32P-labelled phosphorylase a was re-dissolved in +50% glycerol, and stored at −20° C.
To measure PP2A's phosphatase activity, PP2A (5-20 nM) was incubated with phosphorylase a (5-10 μM) at 37° C. 10% TCA (final concentration) and was added to the reaction to precipitate proteins. Supernatant that contains free ^32P-phosphate group was added into scintillation counting solution (Ecoscint, National Diagnostics), and counted by scintillation counter (LS 6000SE, Beckman).
`CCCCCCCCCCCCCCCCCCC(=O)NCCc1c[nH]c2ccc(O)cc12` [Compound I-67, N-(2-(5-hydroxy-1H-indol-3-yl)ethyl)nonadecanamide] was tested, and the IC50 was greater than 100 µM.
With `CCCCCCCCCCCCCCCCCCNC(=O)Cc1c[nH]c2ccc(O)cc12` [Compound I-39, 2-(5-hydroxy-1H-indol-3-yl)-N-octadecylacetamide] the IC50 was 10 to 100 µM.
For `CCCCCCCCCCCCCCCCCC(=O)NCCc1c[nH]c2ccccc12` [Compound I-65, N-(2-(1H-indol-3-yl)ethyl)stearamide], the IC50 was 10 to 100 µM.
`CCCCCCCCCCCCCCCCCCNC(=O)NCCc1c[nH]c2ccc(O)cc12` [Compound I-31, 1-[2-(5-hydroxy-1H-indol-3-yl)ethyl]-3-octadecylurea] gave an IC50 of 10 to 100 µM.
Compound `CCCCCCCCCCCCCCCCCC(=O)NCCc1c[nH]c2ccc(O)cc12` [Compound I-66, N-(2-(5-hydroxy-1H-indol-3-yl)ethyl)stearamide] has an IC50 greater than 100 µM.
Work on `CCCCCCCCCCCCCCCCCCCC(=O)NCCc1c[nH]c2ccc(F)cc12` [Compound I-35, N-[2-(5-fluoro-1H-indol-3-yl)ethyl]icosanamide] yielded an IC50 greater than 100 µM.
